#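 Cultured in 96-well plates, cells were exposed to test compound for 48 hours across five concentrations. The concentration for 50% growth inhibition is given as GI50. The concentration for full growth arrest is given as TGI.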 *1 amine or outer side, *2 acyl side, *3 side chain or, on linkers, in order; H or OH if unused. Where a SMILES comes first, the peptide text is derived from it. Bridges are numbered along the chain shown (N, C = ends). [ ]: non-standard residue; d: D form. The star is where a group is joined. ξ: configuration not given here. γ4hArg(2R,3R-(OH)2) = N=C(N)NCCC[C@H](N[*:1])[C@@H](O)[C@@H](O)C(=O)[*:2]; Gln(3S,4R-Me2) = C[C@H]([C@H](N)C(=O)O)[C@@H](C)C(N)=O; X43 = CC(C)C[C@H](C)[C@@H](O)[C@@H](C)C(=O)*; X44 = COC(c1ccc(O)cc1)C(N[*:1])C(=O)[*:2]; NMeQ = CN[C@@H](CCC(N)=O)C(=O)O; Thr(3ξ) = CC(O)[C@H](N)C(=O)O; NMeA = CN[C@@H](C)C(=O)O
# Legend:
# Assay in all cases: DTP human tumour cell line panel, 48 h
# [1] = tested on: BT-549 breast
# [2] = tested on: HOP-92 NSCLC
# [3] = tested on: NCI-H226 lung
# [4] = tested on: NCI-H23 lung
# [5] = tested on: UACC-257 melanoma
# [6] = tested on: 786-0 renal
# [7] = tested on: A498 renal
# [8] = tested on: A549 NSCLC
# [9] = tested on: ACHN renal
# [10] = tested on: CAKI-1 renal
# [11] = tested on: CCRF-CEM leukemia
# [12] = tested on: COLO 205 colon
# [13] = tested on: DU-145 prostate
# [14] = tested on: EKVX NSCLC
# [15] = tested on: HCC-2998 colon
# [16] = tested on: HCT-116 colon
# [17] = tested on: HCT-15 colon
# [18] = tested on: HL-60(TB) leukemia
# [19] = tested on: HOP-62 NSCLC
# [20] = tested on: HS 578T breast
# [21] = tested on: HT29 colon
# [22] = tested on: IGROV1 ovarian
# [23] = tested on: K-562 leukemia
# [24] = tested on: KM12 colon
# [25] = tested on: LOX IMVI melanoma
# [26] = tested on: M14 melanoma
# [27] = tested on: MALME-3M melanoma
# [28] = tested on: MCF7 breast
# [29] = tested on: MDA-MB-231 breast
# [30] = tested on: MDA-MB-435
# [31] = tested on: MOLT-4 leukemia
# [32] = tested on: NCI-H460 lung
# [33] = tested on: NCI-H522 lung
# [34] = tested on: NCI/ADR-RES ovarian
# [35] = tested on: OVCAR-3 ovarian
# [36] = tested on: OVCAR-4 ovarian
# [37] = tested on: OVCAR-5 ovarian
# [38] = tested on: OVCAR-8 ovarian
# [39] = tested on: PC-3 prostate
# [40] = tested on: RPMI-8226 leukemia
# [41] = tested on: RXF 393 renal
# [42] = tested on: SF-268 CNS
# [43] = tested on: SF-295 CNS
# [44] = tested on: SF-539 CNS
# [45] = tested on: SK-MEL-2 melanoma
# [46] = tested on: SK-MEL-28 melanoma
# [47] = tested on: SK-MEL-5 melanoma
# [48] = tested on: SK-OV-3 ovarian
# [49] = tested on: SN12C renal
# [50] = tested on: SNB-19 CNS
# [51] = tested on: SNB-75 CNS
# [52] = tested on: SR leukemia
# [53] = tested on: SW-620 colon
# [54] = tested on: T-47D breast
# [55] = tested on: TK-10 renal
# [56] = tested on: U251 CNS
# [57] = tested on: UACC-62 melanoma
# [58] = tested on: UO-31 renal
smiles,measurement,setting,value
"COC(c1ccc(O)cc1)C1NC(=O)[C@H](CCC(N)=O)N(C)C(=O)[C@H](CC(C)C)NC(=O)[C@@H](CCCN=C(N)N)NC(=O)[C@H](C(C)O)NC(=O)[C@@H](NC(=O)[C@@H](NC(=O)[C@H](O)[C@H](O)[C@H](CCCN=C(N)N)NC(=O)[C@H](C)NC(=O)[C@H](C)[C@H](O)[C@@H](C)CC(C)C)[C@@H](C)[C@@H](C)C(N)=O)[C@@H](C)OC(=O)[C@H](C)N(C)C1=O (stereo partly drawn) (X43-A[γ4hArg(2R,3R-(OH)2)][Gln(3S,4R-Me2)]T[Thr(3ξ)][dR]L[NMeQ][X44][NMeA]; ester 4-C)",TGI,[1],0.737 µM
same,TGI,[2],0.614 µM
same,TGI,[3],0.912 µM
same,TGI,[4],0.201 µM
same,TGI,[5],0.308 µM
O=C(/C=C/Sc1cc(C(F)(F)F)cc(C(F)(F)F)c1)c1ccc(Cl)cc1,GI50,[6],2.66 µM
same,TGI,[6],9.84 µM
same,GI50,[7],15.9 µM
same,TGI,[7],29.3 µM
same,GI50,[8],16.1 µM
same,TGI,[8],32.8 µM
same,GI50,[9],1.78 µM
same,TGI,[9],3.36 µM
same,GI50,[1],11.5 µM
same,TGI,[1],23.8 µM
same,GI50,[10],3.57 µM
same,TGI,[10],9.43 µM
same,GI50,[11],0.271 µM
same,TGI,[11],1.74 µM
same,GI50,[12],2.1 µM
same,TGI,[12],6.6 µM
same,GI50,[13],12.3 µM
same,TGI,[13],25.1 µM
same,GI50,[14],14.3 µM
same,TGI,[14],30.5 µM
same,GI50,[15],19.2 µM
same,TGI,[15],33.4 µM
same,GI50,[16],1.83 µM
same,TGI,[16],4.09 µM
same,GI50,[17],3.04 µM
same,TGI,[17],11.6 µM
same,GI50,[18],2 µM
same,TGI,[18],11.4 µM
same,GI50,[19],18.3 µM
same,TGI,[19],32.7 µM
same,GI50,[20],16.5 µM
same,TGI,[20],43.7 µM
same,GI50,[21],6.93 µM
same,TGI,[21],23.9 µM
same,GI50,[22],2.38 µM
same,TGI,[22],6.55 µM
same,GI50,[23],2.92 µM
same,TGI,[23],24.6 µM
same,GI50,[24],13.5 µM
same,TGI,[24],27.8 µM
same,GI50,[25],1.43 µM
same,TGI,[25],2.73 µM
same,GI50,[26],1.67 µM
same,TGI,[26],3.36 µM
same,GI50,[27],9.13 µM
same,TGI,[27],23.4 µM
same,GI50,[28],13.6 µM
same,TGI,[28],35.8 µM
same,GI50,[29],2.51 µM
same,TGI,[29],8.67 µM
same,GI50,[30],4.22 µM
same,TGI,[30],15.3 µM
same,GI50,[31],1.64 µM
same,TGI,[31],9.12 µM
same,GI50,[3],2.49 µM
same,TGI,[3],7.32 µM
same,GI50,[4],17 µM
same,TGI,[4],31.3 µM
same,GI50,[32],16.6 µM
same,TGI,[32],36.6 µM
same,GI50,[33],3.42 µM
same,TGI,[33],12.4 µM
same,GI50,[34],23.4 µM
same,TGI,[34],46.3 µM
same,GI50,[35],1.48 µM
same,TGI,[35],4.19 µM
same,GI50,[36],13.5 µM
same,TGI,[36],30.7 µM
same,GI50,[37],18.6 µM
same,TGI,[37],33.7 µM
same,GI50,[38],9.9 µM
same,TGI,[38],45.3 µM
same,GI50,[39],2.42 µM
same,TGI,[39],5.97 µM
same,GI50,[40],0.197 µM
same,TGI,[40],1.02 µM
same,GI50,[41],12 µM
same,TGI,[41],25.3 µM
same,GI50,[42],14.4 µM
same,TGI,[42],29.6 µM
same,GI50,[43],13.6 µM
same,TGI,[43],29.6 µM
same,GI50,[44],14.4 µM
same,TGI,[44],30.9 µM
same,GI50,[45],31.1 µM
same,TGI,[45],63.1 µM
same,GI50,[46],4.74 µM
same,TGI,[46],17.1 µM
same,GI50,[47],17.4 µM
same,TGI,[47],32.9 µM
same,GI50,[48],15.1 µM
same,TGI,[48],31.3 µM
same,GI50,[49],1.71 µM
same,TGI,[49],3.46 µM
same,GI50,[50],12.8 µM
same,TGI,[50],25.4 µM
same,GI50,[51],12.8 µM
same,TGI,[51],25.7 µM
same,GI50,[52],2.02 µM
same,TGI,[52],5.32 µM
same,GI50,[53],17 µM
same,TGI,[53],41.3 µM
same,GI50,[54],1.82 µM
same,TGI,[54],4.09 µM
same,GI50,[55],22.3 µM
same,TGI,[55],37.8 µM
same,GI50,[56],4.65 µM
same,TGI,[56],16.2 µM
same,GI50,[5],14.1 µM
same,TGI,[5],27.5 µM
same,GI50,[57],4.58 µM
same,TGI,[57],15.6 µM
same,GI50,[58],2.85 µM
same,TGI,[58],6.05 µM
COc1cc([C@@H]2c3cc4c(cc3[C@@H](c3c(O)cc(O)c5c3O[C@H](c3ccc(O)c(O)c3)[C@@H](O)C5)[C@H]3COC(=O)[C@H]23)OCO4)cc(OC)c1OC,TGI,[6],> 100 µM
same,TGI,[7],2.95 µM
same,TGI,[8],> 100 µM
same,TGI,[9],3.16 µM
same,TGI,[1],> 100 µM
same,TGI,[10],3.57 µM
same,TGI,[11],> 100 µM
same,TGI,[12],51.8 µM
same,TGI,[13],3.22 µM
same,TGI,[14],> 100 µM
same,TGI,[15],3.48 µM
same,TGI,[16],> 100 µM
same,TGI,[17],> 100 µM
same,TGI,[18],> 100 µM
same,TGI,[19],3.76 µM
same,TGI,[2],> 100 µM
same,TGI,[20],> 100 µM
same,TGI,[21],63.9 µM
same,TGI,[22],> 100 µM
same,TGI,[23],78.5 µM
same,TGI,[24],3.33 µM
same,TGI,[25],> 100 µM
same,TGI,[26],> 100 µM
same,TGI,[27],> 100 µM
same,TGI,[28],3.11 µM
same,TGI,[29],3.28 µM
same,TGI,[30],3.13 µM
same,TGI,[31],> 100 µM
same,TGI,[4],> 100 µM
same,TGI,[32],3.72 µM
same,TGI,[33],> 100 µM
same,TGI,[34],> 100 µM
same,TGI,[35],3.22 µM
same,TGI,[36],3.35 µM
same,TGI,[37],69.7 µM
same,TGI,[38],> 100 µM
same,TGI,[39],3.38 µM
same,TGI,[40],59.4 µM
same,TGI,[41],3.28 µM
same,TGI,[42],> 100 µM
same,TGI,[43],3.45 µM
same,TGI,[44],> 100 µM
same,TGI,[45],3.75 µM
same,TGI,[46],> 100 µM
same,TGI,[47],92.7 µM
same,TGI,[48],3.36 µM
same,TGI,[49],> 100 µM
same,TGI,[50],> 100 µM
same,TGI,[53],> 100 µM
same,TGI,[54],5.16 µM
same,TGI,[55],3.53 µM
same,TGI,[56],3.64 µM
same,TGI,[5],3.81 µM
same,TGI,[57],3.13 µM
